We go through three compounds from patent publication US20220323406A1, “METHODS AND COMPOSITIONS FOR DIFFERENTIATING STEM CELLS” (Massachusetts Institute of Technology, priority 2019, published 2022).

Assay [1] relates to ENR+CD organoids (ISC to Paneth cell differentiation). Briefly: Primary screen: basal (non-stimulated) lysozyme secretion LYZ.NS, 2.5-D 384-well ENR+CD organoid differentiation. In kind it is cell-based, mouse. The following applies: primary screen; for Z.LYZ.NS: standard z score; for Dose.FC.LYZ.NS: FC vs plate median. An excerpt:
(§1) High-throughput screening.

In another assay the test system is ENR+CD organoids. Briefly: Primary screen: ATP (CellTiter-Glo 3D, CTG) cell number/viability, 2.5-D 384-well ENR+CD organoids.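 For all read-outs here: compounds given at plating and again on day 3 over a 6-day differentiation from ENR+CV stem-cell-enriched precursors, ATP measured on day 6, plate median as control.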 The following applies: primary screen; for Dose.FC.CTG: FC vs plate median; for Z.CTG: standard z score. A general note: In ATP-based viability assays light output follows the ATP content of the culture.
Assay [2] relates to ENR+CD organoids (ISC to Paneth cell differentiation). Briefly: Primary screen: CCh-stimulated lysozyme secretion LYZ.S, 2.5-D 384-well ENR+CD organoid differentiation. In kind it is cell-based, mouse. As to conditions: primary screen, FC vs plate median.
Text: as §1

Turning to `Cc1cc(OCc2nnc(SC3CCCC3)n2-c2cccnc2)ccc1-c1ccc(S(C)(=O)=O)cc1` [NMS-873], the Z.LYZ.NS in assay [1] (dose 0.08 uM) is given as 0.853; in assay [1] (dose 0.40 uM), −1.537; in assay [1] (dose 2.00 uM), −2.352; in assay [1] (dose 10.00 uM), −2.368. Further, the Dose.FC.LYZ.NS is recorded as 0.098 log2 fold change in assay [1] (dose 0.08 uM), −0.177 log2 fold change in assay [1] (dose 0.40 uM), −0.270 log2 fold change in assay [1] (dose 2.00 uM) and −0.272 log2 fold change in assay [1] (dose 10.00 uM). Also, the Dose.FC.CTG is recorded as 0.174 log2 fold change in the assay with ENR+CD organoids (dose 0.08 uM), −0.051 log2 fold change with ENR+CD organoids (dose 0.40 uM), −0.910 log2 fold change with ENR+CD organoids (dose 2.00 uM) and −1.542 log2 fold change in the assay on ENR+CD organoids (dose 10.00 uM). The Dose.FC.LYZ.S is given as 0.069 log2 fold change in assay [2] (dose 0.08 uM), −0.228 log2 fold change in assay [2] (dose 0.40 uM), −0.343 log2 fold change in assay [2] (dose 2.00 uM) and −0.375 log2 fold change in assay [2] (dose 10.00 uM).

Take `CC(C)(Cc1ccc2ccccc2c1)NC[C@@H](O)COc1cccc(Cl)c1C#N` [NPS-2143]: the Z.LYZ.NS in assay [1] (dose 0.08 uM) is 1.413; in assay [1] (dose 0.40 uM), −0.416; in assay [1] (dose 2.00 uM), −0.674; in assay [1] (dose 10.00 uM), −0.597. Moreover, the Dose.FC.LYZ.NS in assay [1] (dose 0.08 uM) is recorded as 0.162 log2 fold change; in assay [1] (dose 0.40 uM), −0.048 log2 fold change; in assay [1] (dose 2.00 uM), −0.077 log2 fold change; in assay [1] (dose 10.00 uM), −0.069 log2 fold change. Besides, the Z.CTG in the assay with ENR+CD organoids (dose 0.08 uM) is listed as 0.356; with ENR+CD organoids (dose 0.40 uM), −0.466; in the assay with ENR+CD organoids (dose 2.00 uM), −0.587; in the assay on ENR+CD organoids (dose 10.00 uM), −0.282. Besides, the Dose.FC.CTG was 0.149 log2 fold change in the assay with ENR+CD organoids (dose 0.08 uM), −0.195 log2 fold change in the assay on ENR+CD organoids (dose 0.40 uM), −0.246 log2 fold change in the assay with ENR+CD organoids (dose 2.00 uM) and −0.118 log2 fold change in the assay on ENR+CD organoids (dose 10.00 uM). Further, the Dose.FC.LYZ.S in assay [2] (dose 0.08 uM) was 0.147 log2 fold change; in assay [2] (dose 0.40 uM), −0.062 log2 fold change; in assay [2] (dose 2.00 uM), −0.161 log2 fold change; in assay [2] (dose 10.00 uM) it was −0.116 log2 fold change.

As for `Cc1ccc(S(=O)(=O)c2ccc([N+](=O)[O-])o2)cc1` [NSC697923], the Z.LYZ.NS in assay [1] (dose 0.08 uM) is 0.789; in assay [1] (dose 0.40 uM), 0.441; in assay [1] (dose 2.00 uM) it was −0.906; in assay [1] (dose 10.00 uM), −1.338. The Dose.FC.LYZ.NS in assay [1] (dose 0.08 uM) is reported as 0.091 log2 fold change; in assay [1] (dose 0.40 uM) it was 0.051 log2 fold change; in assay [1] (dose 2.00 uM), −0.104 log2 fold change; in assay [1] (dose 10.00 uM), −0.154 log2 fold change. For the same compound, the Z.CTG was −0.123 in the assay on ENR+CD organoids (dose 0.08 uM), −0.033 in the assay on ENR+CD organoids (dose 0.40 uM), −0.241 with ENR+CD organoids (dose 2.00 uM) and −1.867 in the assay on ENR+CD organoids (dose 10.00 uM). Besides, the Dose.FC.CTG in the assay with ENR+CD organoids (dose 0.08 uM) is −0.052 log2 fold change; in the assay with ENR+CD organoids (dose 0.40 uM), −0.014 log2 fold change; in the assay with ENR+CD organoids (dose 2.00 uM) it was −0.101 log2 fold change; with ENR+CD organoids (dose 10.00 uM), −0.782 log2 fold change. The Dose.FC.LYZ.S in assay [2] (dose 0.08 uM) is on record as 0.036 log2 fold change; in assay [2] (dose 0.40 uM), 0.108 log2 fold change; in assay [2] (dose 2.00 uM), −0.154 log2 fold change; in assay [2] (dose 10.00 uM) it was −0.270 log2 fold change.
